In patent US11072634B2, “Inhibitors of transglutaminases” (Zedira GmbH, priority 2016, dated 2021):
*1 amine or outer side, *2 acyl side, *3 side chain or, on linkers, in order; H or OH if unused. Where a SMILES comes first, the peptide text is derived from it. [ ]: non-standard residue; d: D form. The star is where a group is joined. Nle(5,6-dioxo,6-NHMe) = CNC(=O)C(=O)CC[C@H](N)C(=O)O; X4 = O=C(CC[C@H](N[*:1])C(=O)[*:2])C(=O)NC1CC1; Isonicotinoyl(3-COOH) = O=C(O)c1cnccc1C(=O)*; d(aIle) = CC[C@H](C)[C@@H](N)C(=O)O; Pro(4-oxo) = O=C1CN[C@H](C(=O)O)C1; Chg = N[C@H](C(=O)O)C1CCCCC1; Tle = CC(C)(C)[C@H](N)C(=O)O; Nle = CCCC[C@H](N)C(=O)O; X3 = Cc1nc(C(=O)*)cs1

Columns and labels:
[1] = biological target: T1, recombinant human factor XIII A-subunit (rhFXIII-A, plasma transglutaminase) (Homo sapiens, UniProt P00488); assay: Inhibition of rec. human coagulation factor XIII (fluorescence, Abz-NE(CAD-DNP)EQVSPLILLK-OH); assay type: biochemical; conditions: Table 3, FXIII inhibitors; read-out: IC50 FXIII
T1 construct: His6; purchased Zedira 1027 (so in the source); T027)
T1 sequence (P00488 39-732 limits assumed): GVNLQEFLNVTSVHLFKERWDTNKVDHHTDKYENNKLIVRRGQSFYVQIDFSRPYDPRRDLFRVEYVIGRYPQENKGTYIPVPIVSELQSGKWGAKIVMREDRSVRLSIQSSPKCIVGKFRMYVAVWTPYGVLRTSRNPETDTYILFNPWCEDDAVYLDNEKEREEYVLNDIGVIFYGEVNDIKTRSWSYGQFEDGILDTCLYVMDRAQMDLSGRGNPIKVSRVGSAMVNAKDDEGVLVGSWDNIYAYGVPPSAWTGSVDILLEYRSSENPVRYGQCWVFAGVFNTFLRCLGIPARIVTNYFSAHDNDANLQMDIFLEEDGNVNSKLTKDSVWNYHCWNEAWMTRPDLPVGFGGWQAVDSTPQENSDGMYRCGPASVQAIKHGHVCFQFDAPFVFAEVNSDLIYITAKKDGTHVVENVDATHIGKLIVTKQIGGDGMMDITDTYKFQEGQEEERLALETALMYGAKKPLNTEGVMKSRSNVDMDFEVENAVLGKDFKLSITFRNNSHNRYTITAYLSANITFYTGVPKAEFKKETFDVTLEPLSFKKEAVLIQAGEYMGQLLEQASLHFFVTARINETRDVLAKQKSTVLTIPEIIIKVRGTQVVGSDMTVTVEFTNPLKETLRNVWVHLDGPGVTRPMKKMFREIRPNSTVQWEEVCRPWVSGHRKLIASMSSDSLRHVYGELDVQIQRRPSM
Experimental: Method for Inhibition Studies of Rec. Human Coagulation Factor XIII (Plasma Transglutaminase, rhFXIII-A)
(§1) 50 μg lyophilized His-tagged recombinant human factor XIII A-subunit (His6-rhFXIII, Zedira product 1027) is reconstituted in H2O (volume depends on original volume before lyophilization) resulting in a buffer containing 20 mM Tris-HCl, 150 mM NaCl, 1 mM EDTA, 1 mM DTT, 189 mg/ml maltodextrin, pH=7.5. The rhFXIII stock solution is diluted in buffer (50 mM Tris-HCl, 7.5 mM CaCl2, 150 mM NaCl, pH=7.4) to give a working solution of 59 U/ml (based on the amine-incorporation activity measured using transglutaminase activity assay #1036 (Zedira GmbH), described below).
(§2) A 10 mM inhibitor stock solution is prepared in DMSO, and from this a serial 1:2-fold dilution series is prepared also in DMSO. Each of the initial dilutions is subsequently diluted 1:50-fold with buffer (50 mM Tris-HCl, 7.5 mM CaCl2, 150 mM NaCl, pH=7.4) to yield the final working dilutions containing 2% (v/v) DMSO.
(§3) 15 μl of inhibitor working dilution are added per well of a 96 well microtiter plate. As control, 15 μl of a 2% (v/v) DMSO solution prepared using the buffer mentioned above are added per well.
(§4) 480 μl of His6-rhFXIII working solution and 120 μl human alpha thrombin (0.5 NIH units/μl) are added to 10.8 ml assay buffer (50 mM Tris-HCl, 7.5 mM CaCl2, 150 mM NaCl, 5 mM DTT, 13.4 mM glycine methylester, 50 μM Abz-NE(CAD-DNP)EQVSPLILLK-OH, (Zedira product A101; patent No.: EP 1781807B1), pH=7.4). From this master-mix solution, 285 μl are added per well containing the inhibitor. Increase in fluorescence is measured using […] and λem=418 nm at 37° C. for 35 min. A slope of the increase in fluorescence between 20 and 30 min is calculated for determination of the IC50 value (inhibitor concentration at which 50% of the initial FXIII activity is blocked).
(§5) Analysis of enzymatic activity is performed by calculation of the slope of an increase in fluorescence intensity. IC50 values are calculated by plotting the enzymatic activity (as percentage from control containing 2% DMSO instead of inhibitor) against the inhibitor concentration. IC50 is defined as the inhibitor concentration blocking 50%) of initial enzyme activity.

[2] = tested on: fresh citrated whole blood; assay: Thromboelastometry (ROTEM delta) in whole blood with t-PA; conditions: human whole blood
Experimental: Thromboelastometry is a visco-elastic method for the assessment of blood coagulation. In whole blood parameters like clotting time (CT), clot formation time (CFT), maximum clot firmness (MCF) and lysis index at 60 min (LI60) were obtained using the ROTEM® delta device according to the manufacturer.
Briefly, 20 μL star-TEM® (0.2 mol/l CaCl2), 20 μL r ex-TEM® (recombinant tissue factor, phospholipids, heparin inhibitor), 10 μL inhibitor stock solution (1.8-0.23 mM), combined with 10 μL t-PA stock solution (0.72 μg/ml) to yield concentrations of 0.9-0.11 mM in 18% DMSO/PBS with 0.36 μg/ml t-PA and 300 μL fresh citrated whole blood (human, from healthy consenting donors) were mixed in a disposable cuvette. As control the inhibitor stock solution was replaced by 36% DMSO/0.36 μg/ml t-PA in PBS.

TG2 = biological target: T2, TG2 (Homo sapiens, UniProt P21980); assay: FXIII assay format using TG2 instead of FXIII (selectivity of FXIIIa blockers); assay type: biochemical; conditions: Table 3, selectivity with respect to TG2; read-out: IC50 TG2
T2 sequence (P21980 1-687): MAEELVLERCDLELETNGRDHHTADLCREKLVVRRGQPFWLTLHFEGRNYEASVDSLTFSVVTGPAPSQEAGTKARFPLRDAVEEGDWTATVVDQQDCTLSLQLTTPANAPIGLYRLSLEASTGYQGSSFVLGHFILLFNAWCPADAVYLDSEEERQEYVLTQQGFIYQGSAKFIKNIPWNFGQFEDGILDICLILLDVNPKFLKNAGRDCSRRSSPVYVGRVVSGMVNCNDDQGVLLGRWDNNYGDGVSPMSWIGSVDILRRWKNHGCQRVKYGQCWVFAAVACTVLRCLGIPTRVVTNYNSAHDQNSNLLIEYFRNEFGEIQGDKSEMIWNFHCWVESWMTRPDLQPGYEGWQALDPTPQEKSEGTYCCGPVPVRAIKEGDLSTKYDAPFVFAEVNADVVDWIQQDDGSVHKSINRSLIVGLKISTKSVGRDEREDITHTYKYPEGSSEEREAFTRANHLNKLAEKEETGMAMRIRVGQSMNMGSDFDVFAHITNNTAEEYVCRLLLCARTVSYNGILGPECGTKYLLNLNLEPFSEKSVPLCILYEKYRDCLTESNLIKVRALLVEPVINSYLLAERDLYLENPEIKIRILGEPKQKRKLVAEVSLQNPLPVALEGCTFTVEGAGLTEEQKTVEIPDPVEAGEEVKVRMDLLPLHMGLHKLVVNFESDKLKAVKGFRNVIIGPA
Experimental: as §1, §2, §3, §4
This assay was also used to determine selectivity of inhibitors preferentially blocking FXIIIa by using TG2 instead of FXIII.
as §5

CNC(=O)C(=O)CC[C@H](NC(=O)c1ccncc1C(=O)O)C(=O)N[C@H](C(=O)N1CC(=O)C[C@H]1C(=O)N[C@H](C(=O)N[C@H](C(N)=O)C1CCCCC1)C1CCCCC1)C(C)(C)C [Compound E25, 4-((S)-1-((S)-1-((S)-2-((S)-2-((S)-2-amino-1-cyclonexyl-2-oxoethylamino)-1-cyclonexyl-2-oxoethylcarbamoyl)-4-oxopyrrolidin-1-yl)-3,3-dimethyl-1-oxobutan-2-ylamino)-6-(methylamino)-1,5,6-trioxohexan-2-ylcarbamoyl)nicotinic acid] ({Isonicotinoyl(3-COOH)}-[Nle(5,6-dioxo,6-NHMe)][Tle][Pro(4-oxo)][Chg][Chg]-NH2) was tested, and the IC50 [1] was 0.05 µM, the “reduction of maximum clot firmness (MCF) compared to control (K)” value ([2]; 6.25-50 μM, with t-PA) was “dose dependent influence” and the “clot lysis at 60 minutes (LI60)” value ([2]; in the presence of 0.02% t-PA) was “dose dependent influence”. For the same compound, the IC50 (TG2) was 5.5 µM.
CC[C@H](C)[C@@H](NC(=O)[C@H](CC(C)C)NC(=O)[C@H](CCC(=O)C(=O)NC1CC1)NC(=O)c1csc(C)n1)C(=O)N[C@@H](CC(C)C)C(=O)N1CCC[C@H]1C(=O)N[C@@H](Cc1c[nH]c2ccccc12)C(=O)N1CCC[C@H]1C(N)=O [Compound E33, (S)—N1-((S)-1-((2R,3S)-1-((S)-1-((S)-2-((S)-1-((S)-2-carbamoylpyrrolidin-1-yl)-3-(1H-indol-3-yl)-1-oxopropan-2-ylcarbamoyl)pyrrolidin-1-yl)-4-methyl-1-oxopentan-2-ylamino)-3-methyl-1-oxopentan-2-ylamino)-4-methyl-1-oxopentan-2-yl)-N6-cyclopropyl-2-(2-methylthiazole-4-carboxamido)-5-oxohexanediamide] (X3-[X4]L[d(aIle)]LPWP-NH2) showed an IC50 [1] of 16 µM and an IC50 (TG2) of 11.5 µM.
With CCCC[C@H](NC(=O)[C@H](CCC(=O)C(=O)NC)NC(=O)CNC(C)=O)C(=O)N[C@H](C(=O)N[C@@H](CC(C)C)C(=O)N1CCC[C@H]1C(=O)N[C@@H](Cc1c[nH]c2ccccc12)C(N)=O)[C@@H](C)CC [Compound E34, (S)-2-(2-acetamidoacetamido)-N1-((S)-1-((2S,3S)-1-((S)-1-((S)-2-((S)-1-amino-3-(1H-indol-3-yl)-1-oxopropan-2-ylcarbamoyl)pyrrolidin-1-yl)-4-methyl-1-oxopentan-2-ylamino)-3-methyl-1-oxopentan-2-ylamino)-1-oxohexan-2-yl)-N6-methyl-5-oxohexanediamide] (Ac-G[Nle(5,6-dioxo,6-NHMe)][Nle]ILPW-NH2) the IC50 [1] was 2.45 µM and the IC50 (TG2) was 0.2 µM.
Work on CCCC[C@H](NC(=O)[C@H](CCC(=O)C(=O)NC)NC(=O)CNC(=O)[C@@H]1CCCN1C(C)=O)C(=O)N[C@H](C(=O)N[C@@H](CC(C)C)C(=O)N1CCC[C@H]1C(=O)N[C@@H](Cc1c[nH]c2ccccc12)C(N)=O)[C@@H](C)CC [Compound E35, (S)-2-(2-((S)-1-acetylpyrrolidine-2-carboxamido)acetamido)-N1-((S)-1-((2S,3S)-1-((S)-1-((S)-2-((S)-1-amino-3-(1H-indol-3-yl)-1-oxopropan-2-ylcarbamoyl)pyrrolidin-1-yl)-4-methyl-1-oxopentan-2-ylamino)-3-methyl-1-oxopentan-2-ylamino)-1-oxohexan-2-yl)-N6-methyl-5-oxohexanediamide] (Ac-PG[Nle(5,6-dioxo,6-NHMe)][Nle]ILPW-NH2) yielded an IC50 [1] of 1.95 µM and an IC50 (TG2) of 0.525 µM.
For CCCC[C@H](NC(=O)[C@H](CCC(=O)C(=O)NC)NC(=O)CNC(=O)[C@@H]1CCCN1C(=O)CNC(C)=O)C(=O)N[C@H](C(=O)N[C@@H](CC(C)C)C(=O)N1CCC[C@H]1C(=O)N[C@@H](Cc1c[nH]c2ccccc12)C(N)=O)[C@@H](C)CC [Compound E36, (S)-2-(2-((S)-1-(2-acetamidoacetyl)pyrrolidine-2-carboxamido)acetamido)-N1-((S)-1-((2S,3S)-1-((S)-1-((S)-2-((S)-1-amino-3-(1H-indol-3-yl)-1-oxopropan-2-ylcarbamoyl)pyrrolidin-1-yl)-4-methyl-1-oxopentan-2-ylamino)-3-methyl-1-oxopentan-2-ylamino)-1-oxohexan-2-yl)-N6-methyl-5-oxohexanediamide] (Ac-GPG[Nle(5,6-dioxo,6-NHMe)][Nle]ILPW-NH2), the IC50 [1] was 3.1 µM and the IC50 (TG2) was 0.8 µM.
CCCC[C@H](NC(=O)[C@H](CCC(=O)C(=O)NC)NC(=O)CNC(=O)[C@@H]1CCCN1C(=O)CNC(=O)[C@H](CC(C)C)NC(C)=O)C(=O)N[C@H](C(=O)N[C@@H](CC(C)C)C(=O)N1CCC[C@H]1C(=O)N[C@@H](Cc1c[nH]c2ccccc12)C(N)=O)[C@@H](C)CC [Compound E37, (S)-2-(2-((S)-1-(2-((S)-2-acetamido-4-methylpentanamido)acetyl)pyrrolidine-2-carboxamido)acetamido)-N1-((S)-1-((2S,3S)-1-((S)-1-((S)-2-((S)-1-amino-3-(1H-indol-3-yl)-1-oxopropan-2-ylcarbamoyl)pyrrolidin-1-yl)-4-methyl-1-oxopentan-2-ylamino)-3-methyl-1-oxopentan-2-ylamino)-1-oxohexan-2-yl)-N6-methyl-5-oxohexanediamide] (Ac-LGPG[Nle(5,6-dioxo,6-NHMe)][Nle]ILPW-NH2) was tested, and the IC50 [1] was 2.5 µM and the IC50 (TG2) was 0.39 µM.
